Values of other authors as cited in paper PMC7993281 (Clinical and Translational Science, 2020).

Test system: plasma GlcCer
Details: healthy subjects; cited from earlier work

CC(C)(NC(=O)O[C@@H]1CN2CCC1CC2)c1csc(-c2ccc(F)cc2)n1 [venglustat]
decrease of plasma GlcCer: up to 80%
